# From patent publication US20250270190A1, “KIT INHIBITORS” (BLUEPRINT MEDICINES CORPORATION, priority 2022, published 2025)
# Counter-ions that a name gives are not always drawn.
# Molecular target: T1, c-kit autophosphorylation (Phospho c-Kit Tyr721) in HMC 1.1 (exon 11/13) cells, V654A (Homo sapiens, UniProt P10721, V560G/V654A)
# T1 construct: endogenous in cells; host or cells: HMC 1.1 (exon 11/13) cells
# Assay: pKIT Meso Scale Discovery (MSD) assay, inhibition of autophosphorylation of KIT, HMC1.1_V654A
# Assay type: cell-based
# Details: Table 1, cell line not named for Table 1, b1056 names pKIT HMC1.1_V654A, read-out: Code (IC50 for inhibition of autophosphorylation of KIT, pKIT MSD assay)
# Procedure, shortened: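 HMC1.1 cells were serum-starved for 4 h in serum-free, iron-free, phenol red-free IMDM, then treated with compound in dose-response for 90 min at 37 °C. Staurosporine and DMSO served as controls. Lysates were analysed by MSD electrochemiluminescence immunoassay for phospho-c-Kit Tyr721, and % inhibition of autophosphorylation was derived.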
# T1 sequence (P10721 26-976 V560G/V654A): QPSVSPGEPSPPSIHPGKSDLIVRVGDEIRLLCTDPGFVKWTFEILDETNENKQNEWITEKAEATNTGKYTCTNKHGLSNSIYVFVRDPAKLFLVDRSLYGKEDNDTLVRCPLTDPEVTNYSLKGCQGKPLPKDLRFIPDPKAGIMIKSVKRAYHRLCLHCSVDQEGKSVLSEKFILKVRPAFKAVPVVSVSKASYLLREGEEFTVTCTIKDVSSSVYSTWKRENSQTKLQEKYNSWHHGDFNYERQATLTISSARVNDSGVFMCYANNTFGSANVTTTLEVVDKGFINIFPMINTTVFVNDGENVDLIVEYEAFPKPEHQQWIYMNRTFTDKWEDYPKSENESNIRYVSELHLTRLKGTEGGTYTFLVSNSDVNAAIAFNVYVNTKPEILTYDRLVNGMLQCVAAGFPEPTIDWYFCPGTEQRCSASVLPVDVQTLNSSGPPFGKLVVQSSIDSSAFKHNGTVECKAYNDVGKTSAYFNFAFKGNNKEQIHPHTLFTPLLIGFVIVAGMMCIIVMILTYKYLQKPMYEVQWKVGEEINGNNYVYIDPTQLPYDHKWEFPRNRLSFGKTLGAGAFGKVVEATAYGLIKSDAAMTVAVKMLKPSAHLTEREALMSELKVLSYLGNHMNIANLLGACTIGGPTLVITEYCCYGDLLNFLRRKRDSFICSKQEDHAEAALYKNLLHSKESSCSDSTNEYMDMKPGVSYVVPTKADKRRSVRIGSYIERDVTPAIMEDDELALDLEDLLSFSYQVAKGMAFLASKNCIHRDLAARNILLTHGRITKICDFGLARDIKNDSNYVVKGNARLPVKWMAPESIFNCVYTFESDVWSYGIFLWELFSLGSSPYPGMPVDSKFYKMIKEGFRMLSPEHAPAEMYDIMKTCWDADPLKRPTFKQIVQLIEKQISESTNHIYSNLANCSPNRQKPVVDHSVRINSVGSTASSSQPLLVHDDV
row,SMILES,IC50 [nM]
1,"CCNc1cc(Nc2cc(N)nc(C(F)F)n2)ncc1C(=O)NC1CC1 [Compound 39, 6-((6-amino-2-(difluoromethyl)pyrimidin-4-yl)amino)-N-cyclopropyl-4-(ethylamino)nicotinamide]",< 10
2,"CNC(=O)c1cnc(Nc2cc(N)nc(C(F)F)n2)cc1NCC(C)C [Compound 43, 6-((6-amino-2-(difluoromethyl)pyrimidin-4-yl)amino)-4-(isobutylamino)-N-methylnicotinamide]",< 10
3,"CNC(=O)c1cnc(Nc2cc(N)nc(CF)n2)cc1N[C@@H](C)C(F)F [Compound 46, (S)-6-((6-amino-2-(fluoromethyl)pyrimidin-4-yl)amino)-4-((1,1-difluoropropan-2-yl)amino)-N-methylnicotinamide]",< 10
4,"CNC(=O)c1cnc(Nc2cc(N)nc(CF)n2)cc1N[C@H](C)C(F)F [Compound 47, (R)-6-((6-amino-2-(fluoromethyl)pyrimidin-4-yl)amino)-4-((1,1-difluoropropan-2-yl)amino)-N-methylnicotinamide]",< 10
5,"N#CCNC(=O)c1cnc(Nc2cc(N)nc(C(F)F)n2)cc1NC1CC1 [Compound 54, 6-((6-amino-2-(difluoromethyl)pyrimidin-4-yl)amino)-N-(cyanomethyl)-4-(cyclopropylamino)nicotinamide]",10 to 40
6,"Nc1cc(Nc2cc(NC3CC3)c(C(=O)NC3CC3)cn2)nc(C(F)F)n1 [Compound 57, 6-((6-amino-2-(difluoromethyl)pyrimidin-4-yl)amino)-N-cyclopropyl-4-(cyclopropylamino)nicotinamide]",< 10
7,"CC(C)Nc1cc(Nc2cc(N)nc(C(F)F)n2)ncc1C(=O)NC1CC1 [Compound 60, 6-((6-amino-2-(difluoromethyl)pyrimidin-4-yl)amino)-N-cyclopropyl-4-(isopropylamino)nicotinamide trifluoroacetate]",< 10
8,"CCCNC(=O)c1cnc(Nc2cc(N)nc(C(F)F)n2)cc1NC1CC1 [Compound 62, 6-((6-amino-2-(difluoromethyl)pyrimidin-4-yl)amino)-4-(cyclopropylamino)-N-propylnicotinamide]",10 to 40
9,"CCC(C)CNc1cc(Nc2cc(N)nc(C(F)F)n2)ncc1C(=O)NC (stereo not drawn) [Compound 65, 6-((6-amino-2-(difluoromethyl)pyrimidin-4-yl)amino)-N-methyl-4-((2-methylbutyl)amino)nicotinamide]",10 to 40
10,"CNC(=O)c1cnc(Nc2cc(N)nc(C(F)F)n2)cc1NCCC(C)C [Compound 66, 6-((6-amino-2-(difluoromethyl)pyrimidin-4-yl)amino)-4-(isopentylamino)-N-methylnicotinamide]",10 to 40
11,"CCCNC(=O)c1cnc(Nc2cc(N)nc(C(F)F)n2)cc1NC(C)C [Compound 67, 6-((6-amino-2-(difluoromethyl)pyrimidin-4-yl)amino)-4-(isopropylamino)-N-propylnicotinamide]",< 10
12,"CCNC(=O)c1cnc(Nc2cc(N)nc(C(F)F)n2)cc1N[C@@H](C)CF [Compound 71, (S)-6-((6-amino-2-(difluoromethyl)pyrimidin-4-yl)amino)-N-ethyl-4-((1-fluoropropan-2-yl)amino)nicotinamide]",< 10
13,"CCNC(=O)c1cnc(Nc2cc(N)nc(C(F)F)n2)cc1N[C@H](C)CF [Compound 72, (R)-6-((6-amino-2-(difluoromethyl)pyrimidin-4-yl)amino)-N-ethyl-4-((1-fluoropropan-2-yl)amino)nicotinamide]",< 10
14,"CNC(=O)c1cnc(Nc2cc(N)nc(C(F)F)n2)cc1N[C@H](C)C(F)F [Compound 73, (R)-6-((6-amino-2-(difluoromethyl)pyrimidin-4-yl)amino)-4-((1,1-difluoropropan-2-yl)amino)-N-methylnicotinamide]",< 10
15,"CNC(=O)c1cnc(Nc2cc(N)nc(C(F)F)n2)cc1N[C@@H](C)C(F)F [Compound 74, (S)-6-((6-amino-2-(difluoromethyl)pyrimidin-4-yl)amino)-4-((1,1-difluoropropan-2-yl)amino)-N-methylnicotinamide]",< 10
16,"CNC(=O)c1cnc(Nc2cc(N)nc(C(F)F)n2)cc1NC(CF)CF [Compound 75, 6-((6-amino-2-(difluoromethyl)pyrimidin-4-yl)amino)-4-((1,3-difluoropropan-2-yl)amino)-N-methylnicotinamide]",< 10
17,"Nc1cc(Nc2cc(NC3CC3)c(C(=O)NCC3CC3)cn2)nc(C(F)F)n1 [Compound 79, 6-((6-amino-2-(difluoromethyl)pyrimidin-4-yl)amino)-4-(cyclopropylamino)-N-(cyclopropylmethyl)nicotinamide]",10 to 40
18,"CNC(=O)c1cnc(Nc2cc(N)nc(C(F)F)n2)cc1NCC(F)(F)F [Compound 82, 6-((6-amino-2-(difluoromethyl)pyrimidin-4-yl)amino)-N-methyl-4-((2,2,2-trifluoroethyl)amino)nicotinamide]",< 10

# More lines, now with the values ahead:
row,IC50 [nM],SMILES
1,10 to 40,"CNC(=O)c1cnc(Nc2cc(N)nc(C(F)F)n2)cc1NC1COC1 [Compound 42, 6-((6-amino-2-(difluoromethyl)pyrimidin-4-yl)amino)-N-methyl-4-(oxetan-3-ylamino)nicotinamide]"
2,> 40,"COc1cc(Nc2cc(N)nc(CF)n2)ncc1-c1cnn(C2CNC2)c1 [Compound 50, N4-(5-(1-(azetidin-3-yl)-1H-pyrazol-4-yl)-4-methoxypyridin-2-yl)-2-(fluoromethyl)pyrimidine-4,6-diamine]"
3,< 10,"CC(C)Oc1cc(Nc2cc(N)nc([C@H](C)F)n2)ncc1-c1cnn(C)c1 [Compound 51, (S)-2-(1-fluoroethyl)-N4-(4-isopropoxy-5-(1-methyl-1H-pyrazol-4-yl)pyridin-2-yl)pyrimidine-4,6-diamine]"
4,< 10,"COc1cc(Nc2cc(N)nc(C(F)F)n2)ncc1-c1cnn(C2CC2)c1 [Compound 52, N4-(5-(1-cyclopropyl-1H-pyrazol-4-yl)-4-methoxypyridin-2-yl)-2-(difluoromethyl)pyrimidine-4,6-diamine]"
5,< 10,"Cn1cc(-c2cnc(Nc3cc(N)nc(C(F)F)n3)cc2OC2CC2)cn1 [Compound 53, N4-(4-cyclopropoxy-5-(1-methyl-1H-pyrazol-4-yl)pyridin-2-yl)-2-(difluoromethyl)pyrimidine-4,6-diamine]"
6,< 10,COc1cc(Nc2cc(N)nc(C(F)F)n2)ncc1-c1cnn(C(C)C)c1 [Compound 56]
7,> 40,"Cc1noc(-c2cnc(Nc3cc(N)nc(C(F)F)n3)cc2NC(C)C)n1 [Compound 58, 2-(difluoromethyl)-N4-(4-(isopropylamino)-5-(3-methyl-1,2,4-oxadiazol-5-yl)pyridin-2-yl)pyrimidine-4,6-diamine]"
8,10 to 40,"COc1cc(Nc2cc(N)nc(C(F)F)n2)ncc1-c1cnn(CCO)c1 [Compound 59, 2-(4-(6-((6-amino-2-(difluoromethyl)pyrimidin-4-yl)amino)-4-methoxypyridin-3-yl)-1H-pyrazol-1-yl)ethan-1-ol trifluoroacetate]"
9,10 to 40,"CNC(=O)c1cnc(Nc2cc(N)nc(C(F)F)n2)cc1NCC1CCC1 [Compound 61, 6-((6-amino-2-(difluoromethyl)pyrimidin-4-yl)amino)-4-((cyclobutylmethyl)amino)-N-methylnicotinamide]"
10,< 10,"CC(C)NC(=O)c1cnc(Nc2cc(N)nc(C(F)F)n2)cc1NC1CC1 [Compound 63, 6-((6-amino-2-(difluoromethyl)pyrimidin-4-yl)amino)-4-(cyclopropylamino)-N-isopropylnicotinamide]"
11,10 to 40,"CNC(=O)c1cnc(Nc2cc(N)nc(C(F)F)n2)cc1NC1CCOC1 (stereo not drawn) [Compound 64, 6-((6-amino-2-(difluoromethyl)pyrimidin-4-yl)amino)-N-methyl-4-((tetrahydrofuran-3-yl)amino)nicotinamide]"
12,10 to 40,"Cn1cc(-c2cnc(Nc3cc(N)nc(C(F)F)n3)cc2OC(F)F)cn1 [Compound 69, N4-(4-(difluoromethoxy)-5-(1-methyl-1H-pyrazol-4-yl)pyridin-2-yl)-2-(difluoromethyl)pyrimidine-4,6-diamine]"
13,< 10,"COc1cc(Nc2cc(N)nc(C(F)F)n2)ncc1-c1cnn(C(F)F)c1 [Compound 70, 2-(difluoromethyl)-N4-(5-(1-(difluoromethyl)-1H-pyrazol-4-yl)-4-methoxypyridin-2-yl)pyrimidine-4,6-diamine]"
14,> 40,"COc1cc(Nc2cc(N)nc(C(F)F)n2)ncc1-c1cnn(C2CNC2)c1 [Compound 76, N4-(5-(1-(azetidin-3-yl)-1H-pyrazol-4-yl)-4-methoxypyridin-2-yl)-2-(difluoromethyl)pyrimidine-4,6-diamine formate]"
15,< 10,"Cn1cc(-c2cnc(Nc3cc(N)nc(C(F)F)n3)cc2OC2COC2)cn1 [Compound 77, 2-(difluoromethyl)-N4-(5-(1-methyl-1H-pyrazol-4-yl)-4-(oxetan-3-yloxy)pyridin-2-yl)pyrimidine-4,6-diamine]"
16,< 10,"COc1cc(Nc2cc(N)nc(C(F)F)n2)ncc1-c1cnn(C2COC2)c1 [Compound 78, 2-(difluoromethyl)-N4-(4-methoxy-5-(1-(oxetan-3-yl)-1H-pyrazol-4-yl)pyridin-2-yl)pyrimidine-4,6-diamine]"
17,10 to 40,"CCOc1cc(Nc2cc(N)nc(C(F)F)n2)ncc1-c1cnn(CCN)c1 [Compound 81, N4-(5-(1-(2-aminoethyl)-1H-pyrazol-4-yl)-4-ethoxypyridin-2-yl)-2-(difluoromethyl)pyrimidine-4,6-diamine]"
18,10 to 40,"Cn1cc(-c2cnc(Nc3cc(N)nc(C(F)F)n3)cc2OCCCO)cn1 [Compound 83, 3-((2-((6-amino-2-(difluoromethyl)pyrimidin-4-yl)amino)-5-(1-methyl-1H-pyrazol-4-yl)pyridin-4-yl)oxy)propan-1-ol]"
